We go through nine molecules from US4539149A, “β-Lactam antibacterial agents” (Beecham Group p.l.c., priority 1981, dated 1985).

Values after ≈ are worked out from the molar mass of the structure shown. Counter-ions that a name gives are not always drawn.

What is called MIC is the smallest concentration in the dilution series that meets the test's criterion for growth inhibition. As a reminder, the AUC is the area under the concentration-time curve, a measure of exposure. A lower AUC goes with less exposure.

One series deals with P. mirabilis 889. As to the kind of experiment: MIC against P. mirabilis 889. In kind it is cell-based. To be noted: for MIC: Proteus mirabilis, 889, P. mirabilis 889.
Another series relates to E. coli 96 R+. As to the kind of experiment: in vivo test in mice against experimental infection, E. coli 96 R+. To be noted: Escherichia coli, sc, mice (5 mice/group), s.c., dosed at 1 and 5 hours after infection, read-out: Total s.c. CD50. As to the method:
(§1) The compound of Example 5 was tested in vivo in mice against experimental infections.
(§2) Organism Total* s.c. CD50 (Mg/Kg)
(§3) *dosed at 1 and 5 hours after infection

Another series deals with E. coli 96 R-. As to the kind of experiment: in vivo test in mice against experimental infection, E. coli 96 R-. To be noted: Escherichia coli, sc, mice (5 mice/group), s.c., dosed at 1 and 5 hours after infection, read-out: Total s.c. CD50. As to the method:
as §1, §2, §3

The test system of another series is K. aerogenes T767. As to the kind of experiment: in vivo test in mice against experimental infection, K. aerogenes T767. To be noted: Klebsiella aerogenes, sc, mice (5 mice/group), s.c., dosed at 1 and 5 hours after infection, read-out: Total s.c. CD50. As to the method:
as §1, §2, §3

The nature of series [1]: blood concentration in mice after subcutaneous administration. In kind it is in vivo. To be noted: mouse, sc, mice (5), 50 mg/kg. As to the method:
The compound of Example 5 was administered to mice (5) by the subcutaneous route at a dosage of 50 mg/kg and the blood concentration determined.

Consider `CCN1CCN(C(=O)N[C@@H](C(=O)N[C@]2(NC=O)C(=O)N3[C@@H](C(=O)O)C(C)(C)S[C@@H]32)c2ccc(O)cc2)C(=O)C1=O` [Example 5, 6α-Formamido-6β-[D-2-[(4-ethyl-2,3-dioxopiperazin-1-yl)carbonylamino]-2-(4-hydroxyphenyl)acetamido]penicillanic acid, sodium salt], for which the minimum inhibitory concentration (MIC) against P. mirabilis 889 turned out to be 0.1 µg/mL. The ED50 with E. coli 96 R+ was 5.2 mg/kg; in the series with E. coli 96 R- it was < 3.1 mg/kg; in the series with K. aerogenes T767, 3.7 mg/kg. Further, the AUC in series [1] was 11000 ng·h/mL. The same molecule had a concentration at 5 min in series [1] (5 mins) of 24400 ng/mL. In series [1] (10 mins), this molecule returned a concentration at 10 min of 23200 ng/mL. Further, in series [1] (20 mins), the concentration at 20 min worked out at 14500 ng/mL. The molecule further gave a concentration at 0.5 h in series [1] (30 mins) of 11000 ng/mL. In addition, the concentration at 1 h in series [1] (60 mins) was < 900 ng/mL. Besides, the concentration at 2 h in series [1] (120 mins) is < 900 ng/mL.
`Cn1nnnc1SCC1=C(C(=O)O)N2C(=O)[C@@](NC=O)(NC(=O)Cc3cccs3)[C@H]2SC1` [Example 53, 7α-Formamido-7β-[2-(thien-2-yl)acetamido]-3-[(1-methyl-1H-tetrazol-5-yl)thiomethyl]ceph-3-em-4-carboxylic acid, sodium salt] registered an MIC in the series with P. mirabilis 889 of 10 µg/mL.
Molecule `Cc1nnc(SCC2=C(C(=O)O)N3C(=O)[C@@](NC=O)(NC(=O)Cc4cccs4)[C@H]3SC2)s1` [Example 56, 7α-Formamido-7β-[2-(thien-2-yl)acetamido]-3-[(2-methyl-1,3,4-thiadiazol-5-yl)thiomethyl]ceph-3-em-4-carboxylate acid, sodium salt] displayed a minimum inhibitory concentration (MIC) with P. mirabilis 889 of 25 µg/mL.
The same measure, in the same setting: under `CCN1CCN(C(=O)N[C@H](C(=O)N[C@]2(NC=O)C(=O)N3[C@@H](C(=O)O)C(C)(C)S[C@@H]32)c2ccc(O)c(O)c2)C(=O)C1=O` [Example 58, 6β-[L-2-[(4-ethyl-2,3-dioxopiperazin-1-yl)carbonyllamino]-2-(3,4-dihydroxyphenyl)acetamido]-6α-formamidopenicillanic acid, sodium salt] stands 100 µg/mL.
In the series with P. mirabilis 889, `O=CN[C@@]1(NC(=O)Cc2cccs2)C(=O)N2C(C(=O)[O-])=C(C[n+]3ccccc3)CS[C@@H]21` [Example 60, 7α-Formamido-3-(pyridiniummethyl)-7β-(thien-2-ylacetamido)-ceph-3-em-4-carboxylate] gave a minimum inhibitory concentration (MIC) of 50 µg/mL (≈ 109 µM).
Regarding `CC(=O)Oc1ccc([C@@H](N)C(=O)N[C@]2(NC=O)C(=O)N3[C@@H](C(=O)O)C(C)(C)S[C@@H]32)cc1OC(C)=O` [Example 64, 6β-[D-2-Amino-2-(3,4-diacetoxyphenyl)acetamido]-6α-formamido penicillanic acid], in the series with P. mirabilis 889, 100 µg/mL (≈ 197 µM) was the least that counted as inhibitory (MIC).
Turning to `CC(=O)OCC1=C(C(=O)O)N2C(=O)[C@@](NC=O)(NC(=O)/C(=N\OC(C)(C)C(=O)O)c3csc(N)n3)[C@H]2SC1` [Example 67, 7β-[(Z)-2-(2-Aminothiazol-4-yl)-2-(1-carboxy-1-methylethoxyimino)acetamido]-7α-formamidocephalosporanic acid disodium salt], in the series on P. mirabilis 889, the lowest concentration to inhibit growth (MIC) was 30 µg/mL.
Regarding `CCN1CCN(C(=O)NC(C(=O)NC2(NC=O)C(=O)N3C(C(=O)[O-])=C(CSc4nnc(C)s4)CSC32)c2ccc(OC(C)=O)c(OC(C)=O)c2)C(=O)C1=O.[Na+]` (stereo not drawn) [Example 68, 7β-[2-(3,4-Diacetoxyphenyl)-2-[(4-ethyl-2,3-dioxopiperazin-1-yl)carbonylamino]acetamido]-7α-formamido-3-[(2-methyl-1,3,4-thiadiazol-5-yl)thiomethyl]ceph-3-em-4-carboxylic acid, sodium salt], the “MIC against P. mirabilis 889” value in the series with P. mirabilis 889 (P. mirabilis 889) came to 0.1 µg/mL.
In the series on P. mirabilis 889, `CCN1CCN(C(=O)N[C@@H](C(=O)N[C@]2(NC=O)C(=O)N3C(C(=O)O)=C(COC(C)=O)CS[C@@H]32)c2ccc(O)c(O)c2)C(=O)C1=O` [Example 69, 7β-[D-2-[(4-Ethyl-2,3-dioxopiperazin-1-yl)carbonylamino]-2-(3,4-dihydroxyphenyl)acetamido]-7α-formamidocephalosporanic acid, sodium salt] showed an MIC of 0.1 µg/mL.
